Reference: ChEMBL document CHEMBL1127115, “Synthesis and antihypertensive activity of KC-399, a benzopyran K+ channel opener with long duration of action and less tachycardia” (Bioorg Med Chem Lett, 1993)

Columns and labels:
Assay type in all cases: functional
Rattus norvegicus [1] = assay: Mean blood pressure was determined in conscious male spontaneously hypertensive rats (SHR) at a dose of 0.01 mg/Kg
Rattus norvegicus [2] = assay: Mean blood pressure was determined in conscious male spontaneously hypertensive rats (SHR) at a dose of 0.03 mg/Kg
Rattus norvegicus [3] = assay: Antihypertensive activity in spontaneously hypertensive rats (SHR) expressed as dose required to produce fall in mean blood pressure (MBP) by peroral administration
Rattus norvegicus [4] = assay: Tested for antihypertensive activity in spontaneously hypertensive rats (SHR) as dose required to produce fall in mean blood pressure (MBP) by peroral administration
Rattus norvegicus [5] = species on record: Rattus norvegicus; assay: Tested for effective concentration required to relax contraction induced by 30 mM KCl in rat aorta
Rattus norvegicus [6] = assay: Heart rate was determined in conscious male spontaneously hypertensive rats (SHR) at a dose of 0.01 mg/Kg dose
Rattus norvegicus [7] = assay: Heart rate was determined in conscious male spontaneously hypertensive rats (SHR) at a dose of 0.03 mg/Kg dose
Rattus norvegicus [8] = assay: Tested for antihypertensive activity, duration of action at the dose of 0.03 mg/Kg was determined; ranges from 7-8h
Rattus norvegicus [9] = assay: Mean blood pressure was determined in conscious male SHR at a dose of 0.1 mg/Kg
Rattus norvegicus [10] = assay: Mean blood pressure was determined in conscious male spontaneously hypertensive rats (SHR) at a dose of 0.3 mg/Kg
Rattus norvegicus [11] = assay: Heart rate was determined in conscious male spontaneously hypertensive rats (SHR) at a dose of 0.1 mg/Kg
Rattus norvegicus [12] = assay: Heart rate was determined in conscious male spontaneously hypertensive rats (SHR) at a dose of 0.3 mg/Kg

EC50 (Rattus norvegicus [5]) | SMILES | Blood pressure (Rattus norvegicus [1]) | Blood pressure (Rattus norvegicus [2]) | Dose (Rattus norvegicus [3]) | Dose (Rattus norvegicus [4]) | Heart rate (Rattus norvegicus [6]) | Heart rate (Rattus norvegicus [7]) | Duration of action (Rattus norvegicus [8]) | Blood pressure (Rattus norvegicus [9]) | Blood pressure (Rattus norvegicus [10]) | Heart rate (Rattus norvegicus [11]) | Heart rate (Rattus norvegicus [12])
0.3 nM | N#CCC/N=C(\S)C1=CC(CF)(CF)Oc2ccc([N+](=O)[O-])cc21 | 156 mmHg | 155 mmHg | 0.03 mg/kg | 0.01 mg/kg | 310 beats min-1 | 323 beats min-1 | 7 h | – | – | – | –
150 nM | CC1(C)Oc2ccc(C#N)cc2C(N2CCCC2=O)C1O (stereo unspecified) [CROMAKALIM] | – | – | – | – | – | – | – | – | – | – | –
– | CC1(C)Oc2ccc(C#N)cc2[C@@H](N2CCCC2=O)[C@@H]1O [LEVCROMAKALIM] | – | – | 0.3 mg/kg | 0.1 mg/kg | – | – | 7 h | 146 mmHg | 153 mmHg | 318 beats min-1 | 313 beats min-1
